Data as given in PubChem BioAssay (NCI).
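Cells were grown in 96-well plates and exposed to each compound for 48 hours at five concentrations; endpoints were interpolated linearly between bracketing concentrations, or set to the highest concentration if not reached. Here, GI50 denotes the concentration required for 50% inhibition of growth. TGI: concentration producing complete growth inhibition.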

Experiments:
Experiment in all cases: NCI anticancer screen, dose series, 48 h
SF-295 CNS = test system: SF-295 CNS
SN12C renal = test system: SN12C renal
SF-539 CNS = test system: SF-539 CNS
K-562 leukemia = test system: K-562 leukemia
SW-620 colon = test system: SW-620 colon
HOP-92 NSCLC = test system: HOP-92 NSCLC
MOLT-4 leukemia = test system: MOLT-4 leukemia
SK-MEL-5 melanoma = test system: SK-MEL-5 melanoma
UACC-62 melanoma = test system: UACC-62 melanoma
HL-60(TB) leukemia = test system: HL-60(TB) leukemia
A498 renal = test system: A498 renal
LOX IMVI melanoma = test system: LOX IMVI melanoma
HS 578T breast = test system: HS 578T breast
SK-MEL-28 melanoma = test system: SK-MEL-28 melanoma
UACC-257 melanoma = test system: UACC-257 melanoma
NCI-H23 lung = test system: NCI-H23 lung
MDA-MB-435 = test system: MDA-MB-435
UO-31 renal = test system: UO-31 renal
OVCAR-5 ovarian = test system: OVCAR-5 ovarian
HCC-2998 colon = test system: HCC-2998 colon
SR leukemia = test system: SR leukemia
SK-OV-3 ovarian = test system: SK-OV-3 ovarian
PC-3 prostate = test system: PC-3 prostate
CCRF-CEM leukemia = test system: CCRF-CEM leukemia
DU-145 prostate = test system: DU-145 prostate
HCT-15 colon = test system: HCT-15 colon
SNB-75 CNS = test system: SNB-75 CNS
MDA-MB-231 breast = test system: MDA-MB-231 breast
RPMI-8226 leukemia = test system: RPMI-8226 leukemia
NCI/ADR-RES ovarian = test system: NCI/ADR-RES ovarian
ACHN renal = test system: ACHN renal

IP(CCCCCCCCCCSc1n(Cc2ccc3ccccc3c2)c(-c2ccccc2)c(-c2ccccc2)[n+]1Cc1ccc2ccccc2c1)(c1ccccc1)(c1ccccc1)c1ccccc1
GI50 (SF-295 CNS): 1570 nM | TGI (SF-295 CNS): 3100 nM | GI50 (SN12C renal): 399 nM | TGI (SN12C renal): 1540 nM | GI50 (SF-539 CNS): 771 nM | TGI (SF-539 CNS): 2150 nM | GI50 (K-562 leukemia): 411 nM | TGI (K-562 leukemia): 1840 nM | GI50 (SW-620 colon): 794 nM | TGI (SW-620 colon): 2160 nM | GI50 (HOP-92 NSCLC): 240 nM | TGI (HOP-92 NSCLC): 932 nM | GI50 (MOLT-4 leukemia): 541 nM | TGI (MOLT-4 leukemia): 2310 nM | GI50 (SK-MEL-5 melanoma): 1100 nM | TGI (SK-MEL-5 melanoma): 2310 nM | GI50 (UACC-62 melanoma): 562 nM | TGI (UACC-62 melanoma): 2020 nM | GI50 (HL-60(TB) leukemia): 189 nM | TGI (HL-60(TB) leukemia): 438 nM | GI50 (A498 renal): 1350 nM | TGI (A498 renal): 3020 nM | GI50 (LOX IMVI melanoma): 553 nM | TGI (LOX IMVI melanoma): 1820 nM | GI50 (HS 578T breast): 670 nM | TGI (HS 578T breast): 3960 nM | GI50 (SK-MEL-28 melanoma): 764 nM | TGI (SK-MEL-28 melanoma): 2140 nM | GI50 (UACC-257 melanoma): 412 nM | TGI (UACC-257 melanoma): 1700 nM | GI50 (NCI-H23 lung): 322 nM | TGI (NCI-H23 lung): 1320 nM | GI50 (MDA-MB-435): 403 nM | TGI (MDA-MB-435): 1590 nM | GI50 (UO-31 renal): 1820 nM | TGI (UO-31 renal): 4890 nM | GI50 (OVCAR-5 ovarian): 1500 nM | TGI (OVCAR-5 ovarian): 3000 nM | GI50 (HCC-2998 colon): 531 nM | TGI (HCC-2998 colon): 1920 nM | GI50 (SR leukemia): 347 nM | TGI (SR leukemia): 1720 nM | GI50 (SK-OV-3 ovarian): 714 nM | TGI (SK-OV-3 ovarian): 2170 nM | GI50 (PC-3 prostate): 415 nM | TGI (PC-3 prostate): 1730 nM | GI50 (CCRF-CEM leukemia): 489 nM | TGI (CCRF-CEM leukemia): 1950 nM | GI50 (DU-145 prostate): 748 nM | TGI (DU-145 prostate): 2190 nM | GI50 (HCT-15 colon): 1790 nM | TGI (HCT-15 colon): 3420 nM | GI50 (SNB-75 CNS): 389 nM | TGI (SNB-75 CNS): 1890 nM | GI50 (MDA-MB-231 breast): 318 nM | TGI (MDA-MB-231 breast): 1260 nM | GI50 (RPMI-8226 leukemia): 337 nM | TGI (RPMI-8226 leukemia): 1500 nM | GI50 (NCI/ADR-RES ovarian): 3940 nM | TGI (NCI/ADR-RES ovarian): 23600 nM | GI50 (ACHN renal): 1820 nM | TGI (ACHN renal): 3640 nM
